Measured values as given in a melting point compilation (Tetko et al.; mined from patent text by program, amines drawn as free bases though some values may be those of a salt).

SMILES | melting point
O=C(O)Cc1noc2cc(F)ccc12 | 132 to 133 °C
CN1CCNS(=O)(=O)c2cc(Oc3ccccc3)ccc21 | 128 to 131 °C
CC(C)C(CS(=O)(=O)c1ccc(-c2cccc(CNC(=O)c3nc4ccccc4c(=O)[nH]3)c2)cc1)N(O)C(N)=O (centres undefined) | 193 to 195 °C
Nc1nc2c(s1)CCN(CC=Cc1cccc(O)c1)CC2 | 85 to 95 °C
CCn1ncc(-c2ccc3c(c2)c(C2=CCN(CCN4CCNC4=O)CC2)cn3-c2ccc(F)cc2)n1 | 143 to 145 °C
Cn1cc(-c2ccccc2[N+](=O)[O-])cn1 | 41 to 44 °C
CN1C(=O)C(C)(c2ccc(O)cc2)Sc2ccccc21 (centres undefined) | 158 to 160 °C
Cc1ccc(-c2cc(N)c(Cl)c(C(=O)O)n2)cc1C | 192 to 194 °C
CN(C(CCN1C(=O)c2ccccc2C1=O)C(=O)NO)S(=O)(=O)c1ccc(Oc2cccc(Cl)c2)cc1 (centres undefined) | 81 to 84 °C
Nc1ccc2oc3c(c2c1)CCC3 | 86.5 to 88.5 °C
COc1cc(OC)cc(-c2ncn(-c3cc(OC)c(OC)c(OC)c3)c2-c2ccc(OC)c(O)c2)c1 | 110 to 111 °C
COc1ccc(C2OC2C(N)=O)cc1 (centres undefined) | 142 to 144 °C
C[C@H]1C=CC2=C[C@@H](O)C[C@H](O)[C@@H]2[C@H]1CC[C@@H]1C[C@@H](O)CC(=O)O1 | 161 to 163 °C
O=[N+]([O-])c1cccc(Nc2nccc(Sc3cccc(Br)c3)n2)c1 | 208 to 209 °C
CCOC(=O)C(C)(C)n1c(=O)c2ccccc2n(CCCCBr)c1=O | 113 to 114 °C
Fc1cc2c(Nc3ccc(OCc4cccc(Cl)c4)c(Cl)c3)ncnc2cn1 | 196 to 198 °C
CC(=O)OC1C(C)=C(C)C(=O)N1c1nc2ccc(F)cc2s1 (centres undefined) | 180 to 183 °C
Nc1nc(N)c2cc(Cc3ccc(Cl)cc3)ccc2n1 | 224 to 225 °C
COc1cccc2c1C1(COc3cc4c(cc31)OCO4)C(=O)N2Cc1ccc(C(F)(F)F)o1 (centres undefined) | 149 to 153 °C
CN1C(=O)C(CCCCNC(=O)OCc2ccccc2)NC1=S (centres undefined) | 135 °C
CC1(C)CN(Cc2ccccc2)c2cc(Cl)cc(C(=O)NC3CN4CCC3CC4)c2O1 (centres undefined) | 174 to 175 °C
CN(C)CCOc1cc2c(Nc3ccc(Cl)cc3F)c(C#N)cnc2cn1 | 150 to 152 °C
CN(C)C=C(C(=O)c1cccc2c1OC(F)(F)O2)C(=O)C1CC1 | 118 to 119 °C
CC1(C)[C@@H](C(=O)Nc2cc(C(F)(F)F)n[nH]2)[C@@H]1c1ccc(S(N)(=O)=O)cc1 (relative stereo) | 210 to 213 °C
Cn1nnc(-c2ccc3c(c2)c(C2=CCN(CCc4nnnn4C)CC2)cn3-c2ccc(F)cc2)n1 | 171 to 173 °C

SMILES | melting point
COC(=O)C(Cl)=NNc1ccc(F)cc1 | 110 to 113 °C
CC(=O)Nc1ccc(OCC2CCN(c3ccncc3)CC2)cc1 | 226 to 228 °C
Nc1c(Cl)c(C(=O)O)nc(Cl)c1C(F)(F)F | 173 °C
N#CCCNC(=O)c1cccc(-c2cccn3cc(Cc4cccc(C(F)(F)F)c4)nc23)c1 | 126 to 127 °C
NC(=O)COCCN1CCN2c3ccccc3Cc3ccccc3C2C1 (centres undefined) | 66 to 68 °C
Sc1c(Br)cc(Br)cc1Br | 114 to 116 °C
COc1cc(C(=O)NS(=O)(=O)c2ccccc2C)ccc1Cc1c(Cl)n(C)c2ccc(CCNC(=O)N(C)C)cc12 | 222 to 224 °C
CCC(=O)c1cccc2cccc(O)c12 | 114 to 117 °C
COc1ccc(-c2cc(CN)c(=O)n(Cc3ccc(Cl)cc3)n2)cc1F | 128 to 131 °C
COC(=O)C1=NC2=COc3ccc(C)cc3N2C1C(=O)O (centres undefined) | 178 to 179 °C
CC(C#N)(c1ccc(F)cc1)c1ccc([N+](=O)[O-])cc1Cl (centres undefined) | 133 °C
CCCCCCCCCCCCCCCC1Cc2cc(C(=O)O)ccc2N1 (racemic) | 102 to 104 °C
CCN(CC)Cc1[nH]c(C)c(-c2ccnc(Nc3ccc(F)cc3)n2)c1C | 71.9 to 74.2 °C
CC(=O)SC1C2=C(CCCC2)C(=O)N1c1ccc(Br)cc1F (centres undefined) | 117 to 118 °C
O=C1c2ccccc2C(=O)N1C[C@H](O)CCl | 100 to 101 °C
CC(CS)C(=O)Nc1cc(C(=O)O)ccn1 (centres undefined) | 247 to 248 °C
CCOC(=O)c1sc2nc(SCCCN3CCN(c4ccc5ccccc5n4)CC3)[nH]c(=O)c2c1C | 200 to 201 °C
Cc1cccc(-c2n[nH]cc2-c2ccc(F)c(-c3ccc(O)cc3)c2)n1 | 72 to 74 °C
COCCOCc1nc2c(N)nc3ccccc3c2n1CCOc1ccccc1 | 170 to 172 °C
Nc1cc(S(=O)c2ccccc2)ccc1Cl (centres undefined) | 89 to 90 °C
Oc1cccnc1Oc1cccc(Br)c1 | 107 to 108 °C
Cc1cc(-c2ccc3c(c2)c2cc(-c4ccc(Cl)cc4Cl)c(=O)n(C)c2n3C)[nH]n1 | 309 to 310 °C
Cc1nc(-c2cccc(-c3nc4sccn4c3-c3ccnc(N[C@@H]4CCCN(C(=O)OC(C)(C)C)C4)n3)c2)no1 | 110 to 112 °C
CC1=c2cc(Br)ccc2=NC1=O | 119 to 120 °C
